From patent US12673918B2, “Small molecule RPN13 inhibitors with antitumor properties” (The Johns Hopkins University, priority 2019, dated 2026) come the findings set out here.

One series concerns ES2 cells. Nature of the series: Seahorse mitochondrial stress test, ES2 cells. In kind it is cell-based, human.
For a further series, the system named is ID8-VegfDefb29 tumor. Put plainly: in vivo. Type of series: in vivo, C57BL/6 mice. As for the experimental part:
To assess therapeutic efficacy the ID8-VegfDefb29 cell line was utilized in a syngeneic mouse model of ovarian cancer expressing luciferase (62). ID8 was first derived from spontaneous malignant transformation of C57BL/6 mouse ovarian surface epithelial cells in vitro (69). ID8-Vegf Defb29 cells represent a more aggressive variant of ovarian cancer in which VEGF provides vascular growth which is augmented by the presence of DEFB29 (62). C57BL/6 mice were injected i.p. with ID8-VegfDefb29 cells stably expressing firefly luciferase (0.5×10^6 cells) in PBS (100 μL). After 72 hrs, mice were imaged for their basal luminescence levels using an IVIS200 imager. Mice with visible luminescence were randomized into equal groups including vehicle (n=8), RA414 (3 mg/Kg, n=8), RA414 (10 mg/Kg, n=8) and treated every three days for up to 3 weeks. Mice were imaged every week to measure bioluminescence expressed by tumor after administration of luciferin. […] On day 24 two mice were sacrificed after collection of ascites, and the remainder required euthanasia on day 31 (FIGS. 17A and 17B). Administration of RA414 at 10 mg/kg (3 doses delivered every three days) regressed the tumor completely in 50% of the mice with less than 10% weight loss. […] This is consistent with proteasome inhibition within the ascites cells by the […] RA414 treatment regimen.
Tumor Studies: Female C57BL6 or Nude mice were inoculated with 10^6 ES2-Luciferase cells i.p. in 100 uL PBC, or ID8-VegfDefb29 syngeneic mouse model of ovarian cancer expressing luciferase (62) i.p. in 100 μL PBS. At day 3, mice were imaged for basal level luminescence activity with a Xenogen IVIS 200 after injection i.p. with luciferin (0.3 mg in 100 water). Mice were randomized into two groups (n=8) and treated i.p. with compounds or vehicle (25% (w/v) β-Hydroxypropylcyclodextrin in water), and imaged again on days 7 and 14. RA375 was administered i.p. at 10 mg/Kg.

Another series concerns OV2008. Put plainly: MTT cytotoxicity assay, OV2008. As to conditions: read-out: cytotoxicity IC50 OV2008. On the technique in general: Tetrazolium assays rely on reduction of a dye to a coloured formazan, in cell work by metabolically active cells.
A further series deals with A2780. The note with it: human.
The next series concerns intracellular GSH. Put plainly: Total GSH assay, SKOV3 cells. In kind it is cell-based, human. The note with it: SKOV3, 0.5 μM, 12 hr. Here is the method:
Luciferase and GSH assays: Sub-confluent cultures of cells were transfected with 4Ub-FL or FL plasmid using Lipofectamine 2000 reagent (Life Technologies). Cells were seeded at 10,000 cells/well in 96-wells plate 48 hr post transfection and incubated with compounds or vehicle (DMSO) at the doses and times indicated. Luciferase activity in cell lysate was determined with a luciferase assay kit (Promega) according to the manufacturer's instructions. Bioluminescence was measured by using a Glomax Multidetection system (Promega). Glutathione was assayed using the Promega GSH assay kit (V6611).

The test system of a further series is ID8 (murine). Put plainly: MTT cytotoxicity assay, ID8. Type of series: cell-based. The note with it: Mus musculus, 48 h, read-out: IC50 ID8 (murine).
For the next series, the system named is SKOV3 cells. Put plainly: XTT cytotoxicity assay, SKOV3. In kind it is cell-based, human. As to conditions: Homo sapiens, SK-OV-3; Table 1; XTT assay; read-out: IC50 SKOV3. An excerpt: (§1) The impact of substituents of the aromatic ring on the potency of molecules was also examined. The presence of either an electron withdrawing group (EWG) or an electron donating group (EDG) influences the reactivity of a Michael acceptor towards the target protein but can also impact specificity/selectivity.

The next series has as its system MCF7. Put plainly: MTT cytotoxicity assay, MCF7. The note with it: read-out: cytotoxicity IC50 MCF7, Tables 3A/4B/4C.
In the next series the test system is C2KmFvB1. Nature of the series: MTT cytotoxicity assay, C2KmFvB1. As to conditions: read-out: cytotoxicity IC50 C2KmFvB1, Tables 3A/4B/4C, BRCA2 + Ve.
In series [1] the test system is proteasome (4UbFL reporter). Put plainly: 4UbFL proteasome reporter, transfected 293T cells. Type of series: cell-based. The note with it: 4 hours. An excerpt:
FIG. 9A illustrates 293T cells in 96 well plates transiently transected with the 4UbFL plasmid and 48 hr later treated with the indicated doses of each compound for 4 hr. Cells were lysed and luciferase activity assessed using a luminometer.
To monitor proteasome activity in living cells, a construct was used expressing a fusion protein comprising four tandem repeats of ubiquitin fused in frame with firefly luciferase (4UbFL) (41) to cause this otherwise stable reporter protein to undergo rapid proteolytic degradation via the proteasome. To assess their capacity to inhibit cellular proteasome function, 293T cells were transiently transfected with the 4UbFL construct and then […] treated with compounds for 4 hours prior to assay of luciferase activity. Like bortezomib, RA375 induced a dramatic increase in bioluminescence, consistent with stabilization of 4UbFL, in a dose dependent manner. At very high concentrations the luciferase activity dropped because of cellular toxicity.
Reporter assays: Sub-confluent cultures of cells were transfected with 4Ub-FL or FL plasmid using TransIT 2020 reagent (Minis Bio). […] Luciferase activity in cell lysate was determined with a luciferase assay kit (Promega) according to the manufacturer's instructions. Bioluminescence was measured by using a Glomax Multidetection system (Promega).

The next series concerns JHU11. Nature of the series: MTT cytotoxicity assay, JHU11. In kind it is cell-based. As to conditions: Table 3, 48 hr, Head & Neck (HPV −ve).
A further series deals with HT3. Nature of the series: MTT cytotoxicity assay, HT3. Type of series: cell-based. As to conditions: Homo sapiens, HT-3, Table 3, 48 hr, Cervical (HPV −ve).
The next series has as its system JHU29. Nature of the series: MTT cytotoxicity assay, JHU29. In kind it is cell-based. The note with it: Table 3, 48 hr, Head & Neck (HPV −ve).
The test system of another series is ID8-vegf. As to conditions: mouse.
Another series concerns VU147T. Nature of the series: MTT cytotoxicity assay, VU147T. In kind it is cell-based. The note with it: Table 3, 48 hr, Head & Neck (HPV +ve).
For another series, the system named is HeLa cells. Put plainly: XTT cytotoxicity assay, HeLa. In kind it is cell-based, human. As to conditions: Homo sapiens, HeLa, read-out: IC50 HeLa.
From the text: as §1

Setting [2] is: 3 mg/Kg, 9 doses delivered every three days.

Protocol for ES2 cells: During the mitochondrial stress test, baseline OCR measurements were followed by the addition of the compound oligomycin to measure ATP-linked respiration. Upon addition of the uncoupler FCCP, maximal respiration is measured. […] At the end of the assay, a mix of rotenone and antimycin A was injected to provide a measure of non-mitochondrial respiration. […] To determine the impact of RA413S on glycolysis, ES2 cells were incubated in medium without glucose or pyruvate and the baseline ECAR was measured. Addition of glucose allows the measurement of the glycolysis rate. This was followed by the injection of oligomycin which inhibits mitochondrial ATP production and shifts the energy production to glycolysis. The consequent rise in ECAR measures the cellular maximum glycolytic capacity.
Seahorse Assay: For quantification of oxygen consumption rate, ES2 cells were seeded at 20,000 cells per well in Seahorse XF96 Analyzer plates in regular media and incubated at 37° C. with 5% CO2 overnight. […] The plate was then loaded into the Seahorse machine and readings of oxygen and pH levels were taken before and after injections of 3 μM oligomycin, 4 μM FCCP, 2 μM antimycin, and 2 μM rotenone. Oxygen consumption rate and extracellular acidification rate were analyzed using Wave 2.4 software.
Protocol for HT3: (§2) The cytotoxic efficacy of selected compounds was assessed against multiple myeloma (MM) cell lines, as this is a validated clinical target for the licensed proteasome inhibitors.
(§3) Cell lines and cytotoxicity assays: All cell lines were obtained from the American Type Culture Collection (ATCC) and cultured in the specified medium supplemented with 10% fetal bovine serum, 100 IU/mL penicillin, and 100 μg/mL streptomycin at 37° C. in a humidified 5% CO2/95% air incubator. […] To assess drug cytotoxicity, cells were seeded at 2,500 cells/well (10,000 cells/well for MM lines) in 100 μL medium in 96-well plate and after 24 treated with compounds for 72 h, incubated according to the manufacturer's protocol with the Thiazolyl Blue Tetrazolium Bromide (Sigma, M2128) and A570 measured using a Benchmark Plus microplate spectrophotometer (BIO-RAD). IC50 data was analyzed by Graphpad Prism software. In the chirality studies the cells were treated with compounds for 48 h, and the cells were incubated and measured via the preceeding protocols.
Protocol for JHU11: as §2, §3
Protocol for JHU29: as §2, §3
Protocol for OV2008: as §3
Protocol for VU147T: Cell lines and cytotoxicity assays: All cell lines were obtained from the American Type Culture Collection (ATCC) and cultured in the specified medium supplemented with 10% fetal bovine serum, 100 IU/mL penicillin, and 100 μg/mL streptomycin at 37° C. in a humidified 5% CO2/95% air incubator. […] To assess drug cytotoxicity, cells were seeded at 2,500 cells/well (10,000 cells/well for MM lines) in 100 μL medium in 96-well plate and after 24 treated with compounds for 72 h, incubated according to the manufacturer's protocol with the Thiazolyl Blue Tetrazolium Bromide (Sigma, M2128) and A570 measured using a Benchmark Plus microplate spectrophotometer (BIO-RAD). IC50 data was analyzed by Graphpad Prism software.

Take `C[C@H]1/C(=C\c2ccc([N+](=O)[O-])cc2)C(=O)/C(=C/c2ccc([N+](=O)[O-])cc2)CN1C(=O)[C@@H](N)Cc1ccccc1`: in the series with ES2 cells (ES2, 12 hr, 100 nM), the “decrease of ATP production” value is listed as about 4 fold. In addition, in the series on ES2 cells (ES2, relative to vehicle or RA414-treated groups), the maximal respiration entry was “significantly reduced”. For the same compound, the “tumor burden compared to vehicle” value in the series with ID8-VegfDefb29 tumor (15 mg/Kg every 3 days, total 5 doses, day 17, p<0.0001) is “significant decrease in tumor burden”. Further, the results for the IC50 with VU93, with OV2008 and with A2780 were 100 nM, 40 nM and 20 nM, respectively.

Take `CC(C)C[C@H](NC(=O)[C@H](Cc1ccccc1)NC(=O)c1cnccn1)B(O)O` [Bortezomib, bortezomib, reference compound]: the “cellular total GSH levels” value in the series on intracellular GSH is reported as “profoundly reduced cellular GSH levels”.

Turning to `N[C@@H](Cc1ccccc1)C(=O)N1C/C(=C\c2ccc([N+](=O)[O-])cc2)C(=O)/C(=C/c2ccc([N+](=O)[O-])cc2)C1` [RA183, reference compound], the figures for the IC50 in the series on ID8 (murine) and with OV2008 were 198 nM and 80 nM, respectively.

`N[C@@H](Cc1ccccc1)C(=O)N1C/C(=C\c2ccc(Cl)c(Cl)c2)C(=O)/C(=C/c2ccc(Cl)c(Cl)c2)C1` [RA190, reference compound]: the values for the IC50 with SKOV3 cells, in the series on MCF7 and in the series on C2KmFvB1 were 75 nM, 750 nM and 436 nM, respectively.

Consider `O=C(CCl)N[C@@H](Cc1ccccc1)C(=O)N1C/C(=C\c2ccc([N+](=O)[O-])cc2)C(=O)/C(=C/c2ccc([N+](=O)[O-])cc2)C1` [RA375], for which the “fold more potent than RA190 (4UbFL stabilization)” value in [1] amounted to 4 fold. In [1], the “fold more potent than bortezomib (4UbFL stabilization)” value was 2 fold. Further, the IC50 in the series on ID8 (murine) turned out to be 44 nM; in the series with JHU11, 178 nM; in the series on HT3 it was 162 nM; in the series on JHU29, 173 nM; in the series on ID8-vegf, 44 nM; in the series on VU147T, 40 nM. The IC50 in the series on HeLa cells came out at 13 nM; in the series with A2780, 37 nM.

With `CC1/C(=C\c2ccc([N+](=O)[O-])cc2)C(=O)/C(=C/c2ccc([N+](=O)[O-])cc2)CN1C(=O)[C@H](Cc1ccccc1)NC(=O)CCl` (stereo partly drawn) [RA414], in the series with ID8-VegfDefb29 tumor (setting [2]), the tolerability entry is “well tolerated” and the tumor growth entry was “inhibited tumor growth”. For the same compound, in the series on ID8-VegfDefb29 tumor (10 mg/kg, 3 doses delivered every three days), the “mice with tumor regressed completely” value was 50%. Besides, the “mice that did not tolerate the dose (>10% weight loss) or died” value in the series on ID8-VegfDefb29 tumor (10 mg/kg, 3 doses delivered every three days, tumor-bearing mice) was 50%. Moreover, the IC50 in the series on MCF7 amounted to 75 nM.
